Laboratory results reported in US20260008783A1, “MODULATORS OF FSHR AND USES THEREOF” (Celmatix Inc., priority 2022, published 2026).

Target: T1, Follicle Stimulating Hormone Receptor (FSHR) (Homo sapiens, UniProt P23945)
T1 construct: HA (N); expressed in transfected cells; host or cells: CHO-K1, transient transfection, pHM6 vector (CMV promoter)
T1 sequence (P23945 18-695): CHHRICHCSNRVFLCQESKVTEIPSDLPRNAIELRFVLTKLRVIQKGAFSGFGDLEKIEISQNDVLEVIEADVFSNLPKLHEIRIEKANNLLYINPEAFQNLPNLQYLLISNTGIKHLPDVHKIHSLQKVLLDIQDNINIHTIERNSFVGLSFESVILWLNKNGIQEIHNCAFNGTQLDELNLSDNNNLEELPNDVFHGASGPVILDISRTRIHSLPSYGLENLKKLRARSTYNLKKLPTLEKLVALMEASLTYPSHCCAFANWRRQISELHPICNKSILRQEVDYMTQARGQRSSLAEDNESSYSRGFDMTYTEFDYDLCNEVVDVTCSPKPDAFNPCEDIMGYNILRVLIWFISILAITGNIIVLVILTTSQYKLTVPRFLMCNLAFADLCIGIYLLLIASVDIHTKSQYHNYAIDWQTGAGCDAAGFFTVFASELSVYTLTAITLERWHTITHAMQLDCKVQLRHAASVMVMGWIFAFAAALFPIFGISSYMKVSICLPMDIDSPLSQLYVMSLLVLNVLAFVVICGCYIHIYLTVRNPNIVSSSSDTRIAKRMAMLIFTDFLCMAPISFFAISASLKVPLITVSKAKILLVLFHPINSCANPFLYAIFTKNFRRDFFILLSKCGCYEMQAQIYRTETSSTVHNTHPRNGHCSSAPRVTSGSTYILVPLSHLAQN
Assay: HTRF cAMP agonist assay, FSHR, transiently transfected CHO-K1 cells
Type: cell-based
Conditions: CHO-K1 cells transiently expressing human FSHR, read-out: IC50 FSHR LANCE CAMP
Text: Example 17. HTRF cAMP Agonist Assay Protocol (for FSHR, TSHR, LHCGR)
Mammalian expression vectors designed to express either Follicle Stimulating Hormone Receptor (FSHR), Thyroid Stimulating Hormone Receptor (TSHR), or Luteinizing Hormone/Choriogonadotropin Receptor (LHCGR), were generated with an HA-tag on the N-terminus. All constructs were expressed under a human cytomegalovirus (CMV) immediate early enhancer and promoter using the pHM6 expression vector. The protein coding region was confirmed by sequence analysis to be in-frame and of the expected sequence, matching the following accession numbers: FSHR NM_000145, TSHR NM_000369, and LHCGR NM_000233.
HTRF cAMP assays were performed using Chinese Hamster Ovary (CHO-K1) cell lines transiently expressing human FSH, TSH, and LHCG receptors. 48 hours before the assay, cells were washed with PBS and then dissociated from tissue culture flasks with 0.25% trypsin. Dissociated cells were quenched in full media (F-12K Medium Corning REF #10-025-CV, 10% Avantor Seradigm FB Essence Cat #10803-034, 1% Penicillin/Streptomycin Cytiva HyClone Cat #SV30010) and then collected by centrifugation at 290×g for 5 min. Cells were resuspended in full media and dispensed into 150 mm cell culture dishes (Nest Scientific Cat #715001), at 2.3×10^6 cells/flask. 7 hours later, cells were transfected using Lipofectamine transfection reagent (Invitrogen Cat #18324020). Briefly, 60 μL of lipofectamine was dispensed into 2 mL of Opti-MEM (Gibco Cat #31985070) and incubated for 5 minutes at room temperature. Then, the mixture was added onto […] of DNA and incubated for another 20 minutes at room temperature. Cells were washed with warm (37° C.) PBS. 17.5 mL of Opti-MEM was dispensed onto the cells, followed by addition of the Opti-MEM/lipofectamine/DNA mixture. Cells were incubated overnight in a 37° C., 5% CO2 cell incubator. 17-19 hours later, Opti-MEM was aspirated off the cells and replaced with full media. Cells were incubated for another 24 hours in a 37° C., 5% CO2 cell incubator.
On the day of the assay, cells were washed with PBS and then dissociated from tissue culture flasks with 0.25% trypsin. Dissociated cells were quenched in full media and then collected by centrifugation at 290×g for 5 min. Cells were resuspended in PBS^+/+ (Corning REF #20-030-CV) to a concentration of 2×10^5 cells/mL. 10 μL/well of cells (2,000 cells/well) were dispensed into 384-well Corning plates (REF #3825), in triplicate. Cells were incubated at room temperature for 2 hours.
Example FSHR Modulator compounds were diluted in assay buffer (PBS^+/+, 0.05% BSA Sigma-Aldrich A3059, 500 μM IBMX Sigma-Aldrich 15879) to 3.5× the final assay concentration. 4 μL of test agonist was added to the cells and incubated for 1 hour at room temperature. 10 μL of cAMP detection reagents (LANCE Ultra cAMP Detection Kit PerkinElmer TRF0264) were dispensed onto the cells and plates were incubated for 2 hours at room temperature (cAMP detection reagents were made according to the PerkinElmer kit protocol). Plates were read on an Envision plate reader following PerkinElmer guidelines.
Raw data for all assays was transmitted directly from plate readers into a database for processing. All assay plates contained both positive and negative control wells to allow for data normalization and scaling. In agonist assays, negative control wells contained assay buffer and positive control wells contained […] positive control (10 nM Follicle Stimulating Hormone Sigma-Aldrich F4021, 50 nM Thyroid Stimulating Hormone Sigma-Aldrich 869006, 50 nM Luteinizing Hormone MyBioSource MBS5308806, for their respective receptors). All control wells contained DMSO at a final assay concentration that matched the test compound wells. […]
Percent control data were analyzed by non-linear regression with a sigmoidal dose response algorithm in the database to yield potency and efficacy data.

| IC50 [nM] | Structure (SMILES) |
| --- | --- |
| 8.2 | COc1cc2c(cc1-c1cncc(C(N)=O)c1)-c1c(c(C(=O)N(C)C(C)(C)C)nn1-c1ccsc1)C2 [Compound 5-04, N-tert-butyl-7-(5-carbamoyl-3-pyridyl)-6-methoxy-N-methyl-1-(3-thienyl)-4H-indeno[1,2-c]pyrazole-3-carboxamide] |
| 559 | COc1cc2c(cc1-c1ccn(C)n1)-c1c(c(C(=O)N3CCOCC3(C)C)nn1-c1cc(Cl)cc(Cl)c1)C2 [Compound 5-05, [1-(3,5-dichlorophenyl)-6-methoxy-7-(1-methylpyrazol-3-yl)-4H-indeno[1,2-c]pyrazol-3-yl]-(3,3-dimethylmorpholin-4-yl)methanone] |
| 494 | COc1cc2c(cc1-c1ccn(C)n1)-c1c(c(C(=O)N(C)C(C)(C)C)nn1-c1cc(Cl)cc(Cl)c1)C2 [Compound 5-06, N-tert-butyl-1-(3,5-dichlorophenyl)-6-methoxy-N-methyl-7-(1-methylpyrazol-3-yl)-4H-indeno[1,2-c]pyrazole-3-carboxamide] |
| 115 | COc1cc2c(cc1-c1ccn(C)n1)-c1c(c(C(=O)N3CCOCC3(C)C)nn1-c1ccsc1)C2 [Compound 5-07, (3,3-dimethylmorpholin-4-yl)-[6-methoxy-7-(1-methylpyrazol-3-yl)-1-(3-thienyl)-4H-indeno[1,2-c]pyrazol-3-yl]methanone] |
| 195 | COc1cc2c(cc1-c1ccn(C)n1)-c1c(c(C(=O)N(C)C(C)(C)C)nn1-c1ccsc1)C2 [Compound 5-08, N-tert-butyl-6-methoxy-N-methyl-7-(1-methylpyrazol-3-yl)-1-(3-thienyl)-4H-indeno[1,2-c]pyrazole-3-carboxamide] |
| 1090 | COc1cc2c(cc1Br)-c1c(c(C(=O)N3CCOCC3(C)C)nn1-c1cc(Cl)cc(Cl)c1)CC2 [Compound 6-01A, [8-bromo-1-(3,5-dichlorophenyl)-7-methoxy-4,5-dihydrobenzo[g]indazol-3-yl]-(3,3-dimethylmorpholin-4-yl)methanone] |
| 33.3 | COc1cc2c(cc1-c1cncc(C#N)c1)-c1c(c(C(=O)N3CCOCC3(C)C)nn1-c1cc(Cl)cc(Cl)c1)CC2 [Compound 6-01B, 5-[1-(3,5-dichlorophenyl)-3-(3,3-dimethylmorpholine-4-carbonyl)-7-methoxy-4,5-dihydrobenzo[g]indazol-8-yl]pyridine-3-carbonitrile] |
| 8.53 | COc1cc2c(cc1-c1cncc(C(N)=O)c1)-c1c(c(C(=O)N(C)C(C)(C)C)nn1-c1cc(Cl)cc(Cl)c1)CC2 [Compound 6-02, N-tert-butyl-8-(5-carbamoyl-3-pyridyl)-1-(3,5-dichlorophenyl)-7-methoxy-N-methyl-4,5-dihydrobenzo[g]indazole-3-carboxamide] |
| 861 | COc1cc2c(cc1Br)-c1c(c(C(=O)N(C)C(C)(C)C)nn1-c1cc(Cl)cc(Cl)c1)CC2 [Compound 6-02A, 8-bromo-N-tert-butyl-1-(3,5-dichlorophenyl)-7-methoxy-N-methyl-4,5-dihydrobenzo[g]indazole-3-carboxamide] |
| 31.9 | COc1cc2c(cc1-c1cncc(C#N)c1)-c1c(c(C(=O)N(C)C(C)(C)C)nn1-c1cc(Cl)cc(Cl)c1)CC2 [Compound 6-02B, N-tert-butyl-8-(5-cyano-3-pyridyl)-1-(3,5-dichlorophenyl)-7-methoxy-N-methyl-4,5-dihydrobenzo[g]indazole-3-carboxamide] |
| 163 | COc1cc2c(cc1-c1ccn(C)n1)-c1c(c(C(=O)N3CCOCC3(C)C)nn1-c1cc(Cl)cc(Cl)c1)CC2 [Compound 6-03, [1-(3,5-dichlorophenyl)-7-methoxy-8-(1-methylpyrazol-3-yl)-4,5-dihydrobenzo[g]indazol-3-yl]-(3,3-dimethylmorpholin-4-yl)methanone] |
| 180 | COc1cc2c(cc1-c1ccn(C)n1)-c1c(c(C(=O)N(C)C(C)(C)C)nn1-c1cc(Cl)cc(Cl)c1)CC2 [Compound 6-04, N-tert-butyl-1-(3,5-dichlorophenyl)-7-methoxy-N-methyl-8-(1-methylpyrazol-3-yl)-4,5-dihydrobenzo[g]indazole-3-carboxamide] |
| 5.24 | COc1cc2ccc3c(C(=O)N4CCOCC4(C)C)nn(-c4cc(Cl)cc(Cl)c4)c3c2cc1-c1cncc(C(N)=O)c1 [Compound 6-05, 5-[1-(3,5-dichlorophenyl)-3-(3,3-dimethylmorpholine-4-carbonyl)-7-methoxy-benzo[g]indazol-8-yl]pyridine-3-carboxamide] |
| 13.6 | COc1cc2ccc3c(C(=O)N(C)C(C)(C)C)nn(-c4cc(Cl)cc(Cl)c4)c3c2cc1-c1cncc(C(N)=O)c1 [Compound 6-06, N-tert-butyl-8-(5-carbamoyl-3-pyridyl)-1-(3,5-dichlorophenyl)-7-methoxy-N-methyl-benzo[g]indazole-3-carboxamide] |
| 83.2 | COc1cc2ccc3c(C(=O)N4CCOCC4(C)C)nn(-c4cc(Cl)cc(Cl)c4)c3c2cc1-c1ccn(C)n1 [Compound 6-07, [1-(3,5-dichlorophenyl)-7-methoxy-8-(1-methylpyrazol-3-yl)benzo[g]indazol-3-yl]-(3,3-dimethylmorpholin-4-yl)methanone] |
| 78.4 | COc1cc2ccc3c(C(=O)N(C)C(C)(C)C)nn(-c4cc(Cl)cc(Cl)c4)c3c2cc1-c1ccn(C)n1 [Compound 6-08, N-tert-butyl-1-(3,5-dichlorophenyl)-7-methoxy-N-methyl-8-(1-methylpyrazol-3-yl)benzo[g]indazole-3-carboxamide] |
| 20.8 | COc1cc2c(cc1-c1cncc(C(N)=O)c1)-c1c(c(C(=O)N3CCNCC3C)nn1-c1cc(Cl)cc(Cl)c1)CC2 (stereo not shown) [Compound 8-01, 5-[1-(3,5-dichlorophenyl)-7-methoxy-3-(2-methylpiperazine-1-carbonyl)-4,5-dihydrobenzo[g]indazol-8-yl]pyridine-3-carboxamide] |
| 30.5 | COc1cc2c(cc1-c1cncc(C(N)=O)c1)-c1c(c(C(=O)N3CCNCC3(C)C)nn1-c1cc(Cl)cc(Cl)c1)CC2 [Compound 8-02] |
| 449 | COc1cc2c(cc1-c1cncc(C(N)=O)c1)-c1c(c(C(=O)N3CCCNCC3)nn1-c1cc(Cl)cc(Cl)c1)CC2 [Compound 8-03, 5-[3-(1,4-diazepane-1-carbonyl)-1-(3,5-dichlorophenyl)-7-methoxy-4,5-dihydrobenzo[g]indazol-8-yl]pyridine-3-carboxamide] |
